Measured values taken from US6960653B2, “Method and kit for detecting, or determining the quantity of, beta-lactam penicillins” (Randox Laboratories Limited, priority 2001, dated 2005).
≈ marks a conversion by molar mass, not a printed value.

Test system: IgG fraction of anti-ampicillin antiserum (antibodies raised against the hapten-BSA immunogen of Example 2)
Conditions: for % CR, Assay 1 / % CR, Assay 2 / % CR, Assay 3: % CR = IC50amp/IC50pen x 100; for IC50, Assay 1 / IC50, Assay 2 / IC50, Assay 3: concentration causing 50% displacement of signal, standards in TBST, ampicillin-HRP conjugate; for IC50, Mean Results / % CR, Mean Results: mean of Assays 1-3; for % CR, Mean Results: relative to 100% for ampicillin
Procedure: An aqueous solution of the immunogen of Example 2 was formulated with Freund's Complete Adjuvant (FCA) to form an emulsion consisting of 2 mg/ml immunogen in 50% (v/v) FCA. Three sheep were immunised with this emulsion, 0.25 ml being subcutaneously injected at each of 4 sites in the flank of each animal. Subsequent immunisations (boosts) contained 1 mg/ml immunogen emulsified in 50% (v/v) Freund's Incomplete Adjuvant (FIA) and were administered in the same manner at monthly intervals for 1 year. Blood sampling took place 7 to 14 days after each boost. Each sample was processed to produce antiserum which was further purified by caprylic acid and ammonium sulfate precipitation to yield an immunoglobulin G (IgG) fraction. The IgG fraction was evaluated by competitive ELISA, microtiter plate assay, as described below.
Serial dilutions of the IgG fraction of each antiserum to be tested (prepared in accordance with Example 4) were prepared in 10 mM Tris, pH 8.5. The wells of an enhanced binding 96 well polystyrene microtiter plate were coated with these dilutions (as shown in FIG. 2) by incubation at 37° C. for 2 hours (125 μl/well). The plate was washed 4 times with Tris buffered saline (pH7.4) containing Tween (Trade Mark) 20 (TBST) and tapped dry. […] 50 μl of TBST was added to the remaining (control) wells. […] The plate was incubated at 37° C. for 2 hours. The excess unbound conjugate was removed by washing 6 times over a 10 minute period with TBST. 125 μl of tetramethylbenzidine (TMB) substrate solution was added to each well of the plate, which was then incubated for 15 to 20 minutes, in the dark, at room temperature. The reaction was terminated by addition of 125 μl 0.2M H2SO4 to each well. The absorbance was then measured at 450 nm using a microtiter plate reader.
Standard solutions of benzylpenicillin (penicillin G-PenG), amoxycillin (Amox), cloxacillin (Clox), dicloxacillin (Diclox) and oxacillin (Oxa) were prepared in TBST at 0, 1, 5, 10, 50, 100, 200 and 500 ng/ml.

Compound | % CR, Assay 1 | IC50, Assay 1 | % CR, Assay 2 | IC50, Assay 2 | % CR, Assay 3 | IC50, Assay 3 | IC50, Mean Results | % CR, Mean Results
CC1(C)SC2C(NC(=O)C(N)c3ccc(O)cc3)C(=O)N2C1C(=O)O (stereo not drawn) [Amox, amoxycillin] | 94% | 1.8 ng/mL (≈ 4.93 nM) | 83% | 3.0 ng/mL (≈ 8.21 nM) | 83% | 3.0 ng/mL (≈ 8.21 nM) | 2.6 ng/mL (≈ 7.12 nM) | 87%
CC1(C)S[C@@H]2[C@H](NC(=O)[C@H](N)c3ccccc3)C(=O)N2[C@H]1C(=O)O [Amp, ampicillin] | 100% | 1.7 ng/mL (≈ 4.87 nM) | 100% | 2.5 ng/mL (≈ 7.15 nM) | 100% | 2.5 ng/mL (≈ 7.15 nM) | 2.2 ng/mL (≈ 6.3 nM) | 100%
Cc1onc(-c2ccccc2)c1C(=O)N[C@@H]1C(=O)N2[C@@H]1SC(C)(C)[C@@H]2C(=O)O [Oxa, oxacillin] | 42.5% | 4.0 ng/mL (≈ 9.96 nM) | 36% | 7.0 ng/mL (≈ 17.4 nM) | 38% | 6.6 ng/mL (≈ 16.4 nM) | 5.9 ng/mL (≈ 14.7 nM) | 39%
Cc1onc(-c2c(Cl)cccc2Cl)c1C(=O)N[C@@H]1C(=O)N2[C@@H]1SC(C)(C)[C@@H]2C(=O)O [Dicloxa, dicloxacillin] | 45% | 3.8 ng/mL (≈ 8.08 nM) | 42% | 6.0 ng/mL (≈ 12.8 nM) | 51% | 4.9 ng/mL (≈ 10.4 nM) | 4.9 ng/mL (≈ 10.4 nM) | 46%
CC1(C)S[C@@H]2[C@H](NC(=O)Cc3ccccc3)C(=O)N2[C@H]1C(=O)O [PenG, benzylpenicillin] | 63% | 2.7 ng/mL (≈ 8.07 nM) | 78% | 3.2 ng/mL (≈ 9.57 nM) | 74% | 3.4 ng/mL (≈ 10.2 nM) | 3.1 ng/mL (≈ 9.27 nM) | 72%
Cc1onc(-c2ccccc2Cl)c1C(=O)N[C@@H]1C(=O)N2[C@@H]1SC(C)(C)[C@@H]2C(=O)O [Cloxa, cloxacillin] | 50% | 3.4 ng/mL (≈ 7.8 nM) | 43% | 5.8 ng/mL (≈ 13.3 nM) | 43% | 5.8 ng/mL (≈ 13.3 nM) | 5 ng/mL (≈ 11.5 nM) | 45%
